Results on nine compounds are retold here after patent publication US10251395B2, “Substituted furano-/thienocycloalkylamino-2-pyrimidine derivatives and use thereof for controlling undesired plant growth” (Bayer CropScience Aktiengesellschaft, priority 2015, dated 2019).

The nature of one series: logP (HCOOH). It is filed as physicochemical. The settings on record: for chromatographic logP: HCOOH (formic acid). The source says:
Table 2 (physicochemical characterization of selected synthesis examples)

A further series has as its system Alopecurus myosuroides. As to the kind of experiment: Pre-emergence herbicidal effect. It is filed as in vivo. The settings on record: Dosage 320 g/ha, scored visually after 3 weeks. Summed up: (§1)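 Herbicidal activity (%) is a visual rating made 3 weeks after treatment by comparison with untreated controls, where 0% equals control plants and 100% means the plants died. Application went onto the soil covering sown seeds before emergence.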

The test system of series [1] is Amaranthus retroflexus. As to the kind of experiment: Pre-emergence herbicidal effect. It is filed as in vivo. The following applies: scored visually after 3 weeks. The method, boiled down:
as §1

Series [2] concerns Echinochloa crus-galli. Kind of series: Pre-emergence herbicidal effect. It is filed as in vivo. The following applies: scored visually after 3 weeks. Summed up: as §1
For another series, the system named is Lolium multiflorum. As to the kind of experiment: Pre-emergence herbicidal effect. It is filed as in vivo. The following applies: Dosage 320 g/ha, scored visually after 3 weeks. Summed up: as §1
In series [3] the test system is Matricaria inodora. As to the kind of experiment: Pre-emergence herbicidal effect. The format is in vivo. The settings on record: scored visually after 3 weeks. The method, boiled down:
as §1

For series [4], the system named is Polygonum convolvulus. Kind of series: Pre-emergence herbicidal effect. It is filed as in vivo. The settings on record: scored visually after 3 weeks. Summed up:
as §1

The test system of series [5] is Setaria viridis. As to the kind of experiment: Pre-emergence herbicidal effect. The format is in vivo. The following applies: scored visually after 3 weeks. Summed up:
as §1

Series [6] has as its system Stellaria media. Kind of series: Pre-emergence herbicidal effect. It is filed as in vivo. The following applies: scored visually after 3 weeks. Summed up: as §1
Series [7] deals with Veronica persica. Kind of series: Pre-emergence herbicidal effect. It is filed as in vivo. The following applies: scored visually after 3 weeks. The method, boiled down: as §1
The subject of series [8] is Viola tricolor. As to the kind of experiment: Pre-emergence herbicidal effect. The format is in vivo. The following applies: scored visually after 3 weeks. Summed up: as §1
For series [9], the system named is Abutilon theophrasti. Kind of series: Post-emergence herbicidal effect. The settings on record: assessed visually after about 3 weeks vs untreated controls. The format is in vivo. The method, boiled down:
(§2)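 Ratings are visual percentages taken around 3 weeks after treatment, compared with untreated plants. Treatment consisted of an aqueous spray of WP or EC formulations, with 0.2% wetting agent, onto one-leaf-stage weeds raised from seed in sandy loam.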

In series [10] the test system is Amaranthus retroflexus. As to the kind of experiment: Post-emergence herbicidal effect. The following applies: assessed visually after about 3 weeks vs untreated controls. It is filed as in vivo. The method, boiled down:
as §2

Series [11] deals with Polygonum convolvulus. Kind of series: Post-emergence herbicidal effect. The format is in vivo. The following applies: 320 g/ha, assessed visually after about 3 weeks vs untreated controls. The method, boiled down:
as §2

The subject of series [12] is Stellaria media. As to the kind of experiment: Post-emergence herbicidal effect. The following applies: 320 g/ha, assessed visually after about 3 weeks vs untreated controls. It is filed as in vivo. Summed up: as §2
Series [13] has as its system Viola tricolor. As to the kind of experiment: Post-emergence herbicidal effect. The settings on record: assessed visually after about 3 weeks vs untreated controls. The format is in vivo. The method, boiled down:
as §2

For series [14], the system named is Abutilon theophrasti. Kind of series: Pre-emergence herbicidal effect. The settings on record: Dosage 320 g/ha, scored visually after 3 weeks. It is filed as in vivo. The method, boiled down: as §1
For series [15], the system named is Echinochloa crus-galli. As to the kind of experiment: Post-emergence herbicidal effect. The format is in vivo. The following applies: 320 g/ha, assessed visually after about 3 weeks vs untreated controls. Summed up: as §2
The subject of the next series is Ipomoea purpurea. Kind of series: Post-emergence herbicidal effect. The format is in vivo. The following applies: assessed visually after about 3 weeks vs untreated controls. Summed up:
as §2

The test system of series [16] is Matricaria inodora. As to the kind of experiment: Post-emergence herbicidal effect. The format is in vivo. The following applies: assessed visually after about 3 weeks vs untreated controls. The method, boiled down:
as §2

For series [17], the system named is Setaria viridis. Kind of series: Post-emergence herbicidal effect. The format is in vivo. The settings on record: 320 g/ha, assessed visually after about 3 weeks vs untreated controls. The method, boiled down:
as §2

Series [18] has as its system Veronica persica. As to the kind of experiment: Post-emergence herbicidal effect. The format is in vivo. The settings on record: 320 g/ha, assessed visually after about 3 weeks vs untreated controls. The method, boiled down: as §2

`Cc1cc2c(s1)CCCC2Nc1ncc(S(=O)(=O)C(C)(C)C)c(N)n1` (racemic) [compound 76]: the “logP (HCOOH)” value in the series “logP (HCOOH)” is recorded as “solid; logP (HCOOH): 3.01; 1H NMR (CDCl3, 400 MHZ, δ in ppm): ): 1.40 (s, 9H,”.

For the compound `Cc1cc2c(s1)CCC2Nc1ncc(S(=O)(=O)C(C)(C)C)c(N)n1` (racemic) [compound 77], in “logP (HCOOH)”, the “logP (HCOOH)” value is “solid; logP (HCOOH): 2.67; 1H NMR (CDCl3, 400 MHZ, δ in ppm): 1.40 (s, 9H, 3*3H”.

On to `COc1nc(NC2CCCc3sc(C)cc32)ncc1F` (racemic) [compound 224], for which the “logP (HCOOH)” value in “logP (HCOOH)” is “solid; logP (HCOOH): 3.12; 1H NMR (CDCl3, 400 MHZ, δ in ppm): 1.90 (m, 3H, 3H”.

Consider `CO/N=C(/C)c1cnc(NC2CCCc3sccc32)nc1N` (racemic) [compound 292], for which the “ALOMY pre-emergence efficacy (herbicidal activity)” value in the series with Alopecurus myosuroides amounted to 100%. Moreover, the “AMARE pre-emergence efficacy (herbicidal activity)” value with Amaranthus retroflexus [1] (Dosage 320 g/ha) is 100%. Further, in the series on Echinochloa crus-galli [2] (Dosage 320 g/ha), the “ECHCG pre-emergence efficacy (herbicidal activity)” value is reported as 100%. Besides, the “LOLMU pre-emergence efficacy (herbicidal activity)” value in the series on Lolium multiflorum turned out to be 70%. Further, the “MATIN pre-emergence efficacy (herbicidal activity)” value in the series on Matricaria inodora [3] (Dosage 80 g/ha) was 80%; in the series on Matricaria inodora [3] (Dosage 320 g/ha) it was 100%. The “POLCO pre-emergence efficacy (herbicidal activity)” value in the series on Polygonum convolvulus [4] (Dosage 80 g/ha) amounted to 70%. Further, in the series with Setaria viridis [5] (Dosage 320 g/ha), the “SETVI pre-emergence efficacy (herbicidal activity)” value amounted to 100%. Also, the “STEME pre-emergence efficacy (herbicidal activity)” value in the series with Stellaria media [6] (Dosage 80 g/ha) and in the series on Stellaria media [6] (Dosage 320 g/ha) was 100% each time. The “VERPE pre-emergence efficacy (herbicidal activity)” value with Veronica persica [7] (Dosage 80 g/ha) and with Veronica persica [7] (Dosage 320 g/ha) was 100% each time. In addition, the “VIOTR pre-emergence efficacy (herbicidal activity)” value in the series with Viola tricolor [8] (Dosage 80 g/ha) and with Viola tricolor [8] (Dosage 320 g/ha) was 100% throughout. Moreover, the “post-emergence efficacy ABUTH” value in the series with Abutilon theophrasti [9] (320 g/ha) is listed as 80%. For the same compound, in the series with Amaranthus retroflexus [10] (320 g/ha), the “post-emergence efficacy AMARE” value is 80%. For the same compound, the “post-emergence efficacy POLCO” value with Polygonum convolvulus [11] is 30%. For the same compound, the “post-emergence efficacy STEME” value in the series with Stellaria media [12] was determined as 90%. Besides, the “post-emergence efficacy VIOTR” value with Viola tricolor [13] (320 g/ha) is 80%.

As for `CC(=NO)c1cnc(NC2CCCc3sc(C)cc32)nc1N` (racemic) [compound 341], the “ABUTH pre-emergence efficacy (herbicidal activity)” value in the series on Abutilon theophrasti [14] is given as 70%. For the same compound, the “ALOMY pre-emergence efficacy (herbicidal activity)” value with Alopecurus myosuroides came out at 70%. The “AMARE pre-emergence efficacy (herbicidal activity)” value in the series on Amaranthus retroflexus [1] (Dosage 80 g/ha) and in the series with Amaranthus retroflexus [1] (Dosage 320 g/ha) was 100% in each case. The results for the “ECHCG pre-emergence efficacy (herbicidal activity)” value with Echinochloa crus-galli [2] (Dosage 80 g/ha) and with Echinochloa crus-galli [2] (Dosage 320 g/ha) were 60% and 100%, respectively. The “MATIN pre-emergence efficacy (herbicidal activity)” value with Matricaria inodora [3] (Dosage 80 g/ha) and in the series on Matricaria inodora [3] (Dosage 320 g/ha) was 100% each time. Further, the “POLCO pre-emergence efficacy (herbicidal activity)” value in the series on Polygonum convolvulus [4] (Dosage 80 g/ha) came out at 70%; in the series on Polygonum convolvulus [4] (Dosage 320 g/ha) it was 100%. For the same compound, the “SETVI pre-emergence efficacy (herbicidal activity)” value in the series on Setaria viridis [5] (Dosage 80 g/ha) amounted to 90%; in the series on Setaria viridis [5] (Dosage 320 g/ha) it was 100%. Moreover, the “STEME pre-emergence efficacy (herbicidal activity)” value with Stellaria media [6] (Dosage 80 g/ha) and in the series with Stellaria media [6] (Dosage 320 g/ha) was 100% in each case. The “VERPE pre-emergence efficacy (herbicidal activity)” value in the series with Veronica persica [7] (Dosage 80 g/ha) and in the series on Veronica persica [7] (Dosage 320 g/ha) was 100% throughout. Further, the “VIOTR pre-emergence efficacy (herbicidal activity)” value with Viola tricolor [8] (Dosage 80 g/ha) and in the series with Viola tricolor [8] (Dosage 320 g/ha) was 100% each time. In addition, the “post-emergence efficacy ABUTH” value worked out at 80% with Abutilon theophrasti [9] (80 g/ha) and 90% with Abutilon theophrasti [9] (320 g/ha). In addition, the “post-emergence efficacy AMARE” value with Amaranthus retroflexus [10] (80 g/ha) is 80%; in the series on Amaranthus retroflexus [10] (320 g/ha) it was 90%. For the same compound, the “post-emergence efficacy ECHCG” value with Echinochloa crus-galli [15] is on record as 70%. In addition, the “post-emergence efficacy PHBPU” value with Ipomoea purpurea (80 g/ha) was found to be 80%; with Ipomoea purpurea (320 g/ha) it was 90%. The results for the “post-emergence efficacy MATIN” value in the series with Matricaria inodora [16] (80 g/ha) and with Matricaria inodora [16] (320 g/ha) were 60% and 90%, respectively. The “post-emergence efficacy SETVI” value in the series on Setaria viridis [17] was determined as 60%. For the same compound, the “post-emergence efficacy STEME” value in the series on Stellaria media [12] was 60%. Besides, the “post-emergence efficacy VERPE” value in the series with Veronica persica [18] is given as 100%. The “post-emergence efficacy VIOTR” value in the series with Viola tricolor [13] (80 g/ha) and in the series on Viola tricolor [13] (320 g/ha) was 90% in each case.

Regarding `CCCS(=O)(=O)c1cnc(NC2CCCc3sccc32)nc1N` (stereo not shown) [compound 37, 5-Propylsulfonyl-N2-(4,5,6,7-tetrahydrobenzothiophen-4-yl)pyrimidine-2,4-diamine], the chromatographic logP in “logP (HCOOH)” is 2.33.

Turning to `Cc1cc2c(o1)CC(C)(C)CC2Nc1ncc([N+](=O)[O-])c(N)n1` (stereo not shown) [compound 40, 5-Nitro-N2-(2,6,6-trimethyl-4,5,6,7-tetrahydro-1-benzofuran-4-yl)pyrimidine-2,4-diamine], in “logP (HCOOH)”, the chromatographic logP was determined as 3.2.

Regarding `CC(=O)c1cnc(N[C@@H]2CCCc3sccc32)nc1C` [compound 71], the “logP (HCOOH)” value in the series “logP (HCOOH)” is listed as “solid; logP (HCOOH): 2.98; 1H NMR (CDCl3, 400 MHZ, δ in ppm): ): 1.85 (m, 3H,”.

Consider `Cc1nc(N[C@@H]2CCCc3sccc32)ncc1F` [compound 223], for which, in “logP (HCOOH)”, the “logP (HCOOH)” value is “solid; logP (HCOOH): 2.57; 1H NMR (CDCl3, 400 MHZ, δ in ppm): 1.90 (m, 3H, 3H”.
